According to US9518038B2, “Condensation product of theanine derivative and carboxylic acid coumarin derivative, its intermediate, preparation method and use thereof” (SHANDONG YINGDONG YINGHAO BIOTECHNOLOGY, INC., priority 2012, dated 2016):
Like-named read-outs stand apart in the source and are kept apart here.

Assays:
[1] = tested on: human chronic leukemia cells K562; experiment: MTT growth inhibition, K562 cells; format: cell-based; conditions: 72 h after treatment, read-out: Drug concentration (IC50) at which 50% cancer cells survived
From the text: (§1) Cell lines and cell culture: human lung cancer cells A549 and H460, human breast cancer cells MCF-7 and MDA-MB-231, human gastric cancer cells BGC-823, human prostate cancer cells PC-3, human chronic leukemia cells K562, human lymphoma cells U937, human liver cancer cells SMMC7721 and HepG2, human colon cancer cells HT29, human pancreatic cancer cells PANC-1 and BxPC3, human cervical cancer Hela cell lines, human brain tumor cells Daoy, human neuroma cells D54 and human oral epidermoid cancer cells KBV200 line with strong drug resistance, mouse melanoma cells B16, and highly metastatic Lewis lung cancer cell lines were purchased from American Type Culture Collection of the U.S. These cells were cultured with DMEM and RPMI-1640 culture solutions separately.
(§2) The procedure was as follows:
(§3) (1) 0.25% trypsin was used to digest cancer cells in a logarithmic growth phase to prepare a single-cell suspension, the concentration of cells was adjusted to 5×10^4/mL, and the adjusted suspension was inoculated into a 96-well culture plate with 100 μl per well;
(§4) (2) The culture plate was transferred into a 37° C. incubator with a saturated humidity and 5% of CO2 and cultured for 24 h; the compounds and the intermediates thereof obtained in embodiments 1-7 and the compound as represented by formula (IIIa) or the positive control anti-cancer drug with the concentration of 1-1000 μM/L were added to enable the final concentration to be 0.1-1500 μM/L. Control wells (only added with 200 μl of cell suspension) and drug-free blank control wells (containing the solvent of 0.01% DMSO) were set, each group included 8 wells, and the plate was placed into the 37° C. incubator with saturated humidity and 5% of CO2 for culturing;
(§5) (3) The 96-well plate was taken out at 48 h and 72 h after dosing, the original culture medium was carefully removed by suction, 100 μl of serum-free DMEM culture medium and 10 μl of MTT (5 mg/mL) solution were added in each well. The plate was continuously cultured for another 4 h and then the culture was terminated;
(§6) (4) The supernatant in the wells was carefully removed by suction, each well was added with 150 μl of DMSO and shaked at room temperature for 10-15 min to fully dissolve crystals.
(§7) (5) Colorimetric analysis: the wavelength was selected as 570 nm, the light absorbance (A value) of each well was determined on the microplate reader and the results were recorded; the experiment was repeated for three times;
(§8) (6) the experimental results were calculated according to the following formula: relative survival rate=(A value of each experimental group/A value of cell control group)×100%
(§9) Calculation of median-effect concentration (IC50, namely the drug concentration at which the inhibition rate is 50%, also known as half inhibitory concentration):
(§10) IC50 of the detected component was calculated by using a regression equation.

[2] = tested on: Caski human cervical cancer cells; experiment: MTT growth inhibition, Caski cells; format: cell-based; conditions: Ca-Ski, 72 h after treatment, read-out: Drug concentration (IC50) at which 50% cancer cells survived
[3] = tested on: human gastric cancer cells BGC-823; experiment: MTT growth inhibition, BGC-823 cells; format: cell-based; conditions: 72 h after treatment, read-out: Drug concentration (IC50) at which 50% cancer cells survived
From the text: as §1, §2, §3, §4, §5, §6, §7, §8, §9, §10

[4] = tested on: human breast cancer cells MDA-MB-231; experiment: MTT growth inhibition, MDA-MB-231 cells; format: cell-based; conditions: 72 h after treatment, read-out: Drug concentration (IC50) at which 50% cancer cells survived
From the text: as §1, §2, §3, §4, §5, §6, §7, §8, §9, §10

[5] = tested on: human pancreatic cancer cells PANC-1; experiment: MTT growth inhibition, PANC-1 cells; format: cell-based; conditions: 72 h after treatment, read-out: Drug concentration (IC50) at which 50% cancer cells survived
From the text: as §1, §2, §3, §4, §5, §6, §7, §8, §9, §10

human neuroma cells D54 = experiment: MTT growth inhibition, D54 cells; format: cell-based; conditions: Homo sapiens, 72 h after treatment, read-out: Drug concentration (IC50) at which 50% cancer cells survived
From the text: as §1, §2, §3, §4, §5, §6, §7, §8, §9, §10

[6] = tested on: human lung cancer cells A549; experiment: MTT growth inhibition, A549 cells; format: cell-based; conditions: 72 h after treatment, read-out: Drug concentration (IC50) at which 50% cancer cells survived
From the text: as §1, §2, §3, §4, §5, §6, §7, §8, §9, §10

[7] = tested on: human liver cancer cells HepG2; experiment: MTT growth inhibition, HepG2 cells; format: cell-based; conditions: 72 h after treatment, read-out: Drug concentration (IC50) at which 50% cancer cells survived
From the text: as §1, §2, §3, §4, §5, §6, §7, §8, §9, §10

[8] = tested on: human colon cancer cells HT29; experiment: MTT growth inhibition, HT29 cells; format: cell-based; conditions: HT-29, 72 h after treatment, read-out: Drug concentration (IC50) at which 50% cancer cells survived
From the text: as §1, §2, §3, §4, §5, §6, §7, §8, §9, §10

mouse melanoma cells B16 = experiment: MTT growth inhibition, B16 cells; format: cell-based; conditions: Mus musculus, 72 h after treatment, read-out: Drug concentration (IC50) at which 50% cancer cells survived
From the text: as §1, §2, §3, §4, §5, §6, §7, §8, §9, §10

[9] = tested on: human lung cancer cells H460; experiment: MTT growth inhibition, H460 cells; format: cell-based; conditions: NCI-H460, 72 h after treatment, read-out: Drug concentration (IC50) at which 50% cancer cells survived
From the text: as §1, §2, §3, §4, §5, §6, §7, §8, §9, §10

[10] = tested on: human prostate cancer cells PC-3; experiment: MTT growth inhibition, PC-3 cells; format: cell-based; conditions: 72 h after treatment, read-out: Drug concentration (IC50) at which 50% cancer cells survived
From the text: as §1, §2, §3, §4, §5, §6, §7, §8, §9, §10

[11] = tested on: human liver cancer cells SMMC7721; experiment: MTT growth inhibition, SMMC7721 cells; format: cell-based; conditions: SMMC-7721, S-7721 (SMMC7721), 72 h after treatment, read-out: Drug concentration (IC50) at which 50% cancer cells survived
From the text: as §1, §2, §3, §4, §5, §6, §7, §8, §9, §10

[12] = tested on: highly metastatic Lewis lung cancer cell lines; experiment: MTT growth inhibition, LLC cells; format: cell-based, mouse; conditions: 72 h after treatment, read-out: Drug concentration (IC50) at which 50% cancer cells survived
From the text: as §1, §2, §3, §4, §5, §6, §7, §8, §9, §10

[13] = tested on: human brain tumor cells Daoy; experiment: MTT growth inhibition, Daoy cells; format: cell-based; conditions: Homo sapiens, 72 h after treatment, read-out: Drug concentration (IC50) at which 50% cancer cells survived
From the text: as §1, §2, §3, §4, §5, §6, §7, §8, §9, §10

[14] = tested on: human lymphoma cells U937; experiment: MTT growth inhibition, U937 cells; format: cell-based; conditions: Homo sapiens, U-937, 72 h after treatment, read-out: Drug concentration (IC50) at which 50% cancer cells survived
Procedure: as §2, §5, §6, §7, §8, §10

[15] = tested on: human oral epidermoid cancer cells KBV200; experiment: MTT growth inhibition, KBV200 cells; format: cell-based; conditions: 72 h after treatment, read-out: Drug concentration (IC50) at which 50% cancer cells survived
From the text: as §1, §2, §3, §4, §5, §6, §7, §8, §9, §10

[16] = tested on: human pancreatic cancer cells BxPC3; experiment: MTT growth inhibition, BxPc3 cells; format: cell-based; conditions: read-out: Drug concentration (IC50) at which 50% cancer cells survived
From the text: as §1, §2, §3, §4, §5, §6, §7, §8, §9, §10

[17] = tested on: human breast cancer cells MCF-7; experiment: MTT growth inhibition, MCF-7 cells; format: cell-based; conditions: MCF7, 72 h after treatment, read-out: Drug concentration (IC50) at which 50% cancer cells survived
From the text: as §1, §2, §3, §4, §5, §6, §7, §8, §9, §10

[18] = tested on: human cervical cancer Hela cell lines; experiment: MTT growth inhibition, Hela cells; format: cell-based; conditions: Homo sapiens, 72 h after treatment, read-out: Drug concentration (IC50) at which 50% cancer cells survived
From the text: as §1, §2, §3, §4, §5, §6, §7, §8, §9, §10

[19] = Mus musculus, Lewis lung carcinoma
[20] = Homo sapiens, BXPC-3, 72 h after treatment

How did the IC50 [1] turn out when `COc1cc([C@@H]2c3cc4c(cc3[C@@H](O[C@@H]3O[C@@H]5CO[C@@H](C)O[C@H]5[C@H](O)[C@H]3O)[C@H]3COC(=O)[C@H]23)OCO4)cc(OC)c1O` [Etoposide, reference compound] was run?
Its IC50 is 85 µM.

What about the IC50 [2] of the same molecule?
Its IC50 is 89 µM.

Which IC50 [3] does the source give for `O=c1c(-c2ccc(O)cc2)coc2cc(O)cc(O)c12` [Genistein, reference compound] here?
Its IC50 is 135 µM.

With `O=C(O)c1cc2cc(Br)cc(Br)c2oc1=O` [Compound IIIh, 6,8-dibromo-coumarin-3-carboxylic acid] as the molecule, how does the IC50 [4] read?
The IC50 was 420 µM.

What about the IC50 [5] of the same molecule?
Its IC50 is 480 µM.

And the IC50 (human neuroma cells D54)?
The IC50 was 300 µM.

And the IC50 [6]?
The IC50 was 450 µM.

What about the IC50 [7] of the same molecule?
The IC50 was 145 µM.

What about the IC50 [8] of the same molecule?
Its IC50 is 590 µM.

And the IC50 (mouse melanoma cells B16)?
Its IC50 is 460 µM.

What about the IC50 [9] of the same molecule?
The IC50 was 550 µM.

What about the IC50 [1] of the same molecule?
Its IC50 is 480 µM.

And the IC50 [10]?
Its IC50 is 410 µM.

What about the IC50 [11] of the same molecule?
The IC50 was 530 µM.

And the IC50 [12, 19]?
Its IC50 is 350 µM.

What about the IC50 [2] of the same molecule?
The IC50 was 135 µM.

What about the IC50 [13] of the same molecule?
The IC50 was 350 µM.

What about the IC50 [14] of the same molecule?
Its IC50 is 390 µM.

And the IC50 [15]?
Its IC50 is 300 µM.

And the IC50 [3]?
The IC50 was 480 µM.

What about the IC50 [16, 20] of the same molecule?
Its IC50 is 400 µM.

And the IC50 [17]?
Its IC50 is 450 µM.

What about the IC50 [18] of the same molecule?
The IC50 was 290 µM.

Which results are given for `O=C(O)c1cc2cc([N+](=O)[O-])ccc2oc1=O` [Compound IIIf, 6-nitrocoumarin-3-carboxylic acid]?
IC50 [4]: 470 µM; IC50 [5]: 430 µM; IC50 (human neuroma cells D54): 300 µM; IC50 [6]: 580 µM; IC50 [7]: 360 µM; IC50 [8]: 460 µM; IC50 (mouse melanoma cells B16): 670 µM; IC50 [9]: 460 µM; IC50 [1]: 300 µM; IC50 [10]: 530 µM; IC50 [11]: 460 µM; IC50 [12, 19]: 370 µM; IC50 [2]: 300 µM; IC50 [13]: 400 µM; IC50 [14]: 450 µM; IC50 [15]: 300 µM; IC50 [3]: 650 µM; IC50 [16, 20]: 114 µM; IC50 [17]: 400 µM; IC50 [18]: 580 µM

What does the source list for `O=C(O)c1cc2ccccc2oc1=O` [Compound IIIa]?
IC50 [4]: > 700 µM; IC50 [5]: > 700 µM; IC50 (human neuroma cells D54): > 700 µM; IC50 [6]: > 700 µM; IC50 [7]: > 700 µM; IC50 [8]: > 700 µM; IC50 (mouse melanoma cells B16): > 700 µM; IC50 [9]: > 700 µM; IC50 [1]: > 700 µM; IC50 [10]: > 500 µM; IC50 [11]: > 500 µM; IC50 [12, 19]: > 700 µM; IC50 [2]: > 700 µM; IC50 [13]: > 700 µM; IC50 [14]: > 700 µM; IC50 [15]: > 700 µM; IC50 [3]: > 700 µM; IC50 [16, 20]: > 700 µM; IC50 [17]: > 700 µM; IC50 [18]: > 700 µM

How did the IC50 [12] turn out when `O=C1OC(=O)[C@H]2[C@@H]1[C@@H]1CC[C@H]2O1` [Norcantharidin, reference compound] was run?
The IC50 was 15 µM.

What about the IC50 ([16]; 72 h after treatment) of the same molecule?
Its IC50 is 60 µM.
